Biological target: human PDE10A2 (Homo sapiens (Human), UniProt Q9Y233)
Assay: PDE10 fluorescence polarization (IMAP FP) inhibition assay
Assay type: biochemical
Settings: human PDE10A2 from transfected AD293 cell lysate, FAM-labeled cAMP 50 nM, room temperature; read-out: PDE10A Ki
Description: The activity of the compounds in accordance with the present invention as PDE10 inhibitors may be readily determined without undue experimentation using a fluorescence polarization (FP) methodology that is well known in the art (Huang, W., et al., J. Biomol Screen, 2002, 7: 215).
In a typical experiment the PDE10 inhibitory activity of the compounds of the present invention was determined in accordance with the following experimental method. PDE10A2 was amplified from human fetal brain cDNA (Clontech, Mountain View, Calif.) using a forward primer corresponding to nucleotides 56-77 of human PDE10A2 (Accession No. AF127480, Genbank Identifier 4894716), containing a Kozak consensus sequence, and a reverse primer corresponding to nucleotides 2406-2413 of human PDE10A2 (Accession No. AF 127480, Genbank Identifier 4894716). Amplification with Easy-A polymerase (Stratagene, La Jolla, Calif.) was 95° C. for 2 minutes followed by thirty three cycles of 95° C. for 40 seconds, 55° C. for 30 seconds, and 72° C. for 2 minutes 48 seconds. Final extension was 72° C. for 7 minutes. The PCR product was TA cloned into pcDNA3.2-TOPO (Invitrogen, Carlsbad, Calif.) according to standard protocol. AD293 cells with 70-80% confluency were transiently transfected with human PDE10A2/pcDNA3.2-TOPO using Lipofectamine 2000 according to manufacturer specifications (Invitrogen, Carlsbad, Calif.). Cells were harvested 48 hours post-transfection and lysed by sonication (setting 3, 10×5 sec pulses) in a buffer containing 20 mM HEPES, 1 mM EDTA and protease inhibitor cocktail (Roche). Lysate was collected by centrifugation at 75,000×g for 20 minutes. Supernatant containing the cytoplasmic fraction was used for evaluation of PDE10A2 activity. The fluorescence polarization assay for cyclic nucleotide phosphodiesterases was performed using an IMAP® FP kit supplied by Molecular Devices, Sunnyvale, Calif. (product #R8139). IMAP® technology has been applied previously to phosphodiesterase assays (Huang, W., et al., J. Biomol Screen, 2002, 7: 215). Assays were performed at room temperature in 384-well microtiter plates with an incubation volume of 20.2 μL. Solutions of test compounds were prepared in DMSO and serially diluted with DMSO to yield 8 μL of each of 10 solutions differing by 3-fold in concentration, at 32 serial dilutions per plate. 100% inhibition is determined using a known PDE10 inhibitor, which can be any compound that is present at 5,000 times its Ki value in the assay described as follows, such as papaverine (see Siuciak, et al. Neuropharmacology (2006) 51:386-396; Becker, et al. Behav Brain Res (2008) 186(2):155-60; Threlfell, et al., J Pharmacol Exp Ther (2009) 328(3):785-795), 2-{4-[pyridin-4-yl-1-(2,2,2-trifluoroethyl)-1H-pyrazol-3-yl]phenoxymethyl}quinoline succinic acid or 2-[4-(1-methyl-4-pyridin-4-yl-1H-pyrazol-3-yl)-phenoxymethyl]quinoline succinic acid (see Schmidt, et al. J Pharmacol Exp Ther (2008) 325:681-690; Threlfell, et al., J Pharmacol Exp Ther (2009) 328(3): 785-795). 0% of inhibition is determined by using DMSO (1% final concentrations).
A Labcyte Echo 555 (Labcyte, Sunnyvale, Calif.) is used to dispense 200 nL from each well of the titration plate to the 384 well assay plate. A solution of enzyme ( 1/1600 dilution from aliquots; sufficient to produce 20% substrate conversion) and a separate solution of FAM-labeled cAMP PDE from Molecular Devices (product #R7506), at a final concentration of 50 nM are made in the assay buffer (10 mM Tris HCl, pH 7.2, 10 mM MgCl2, 0.05% NaN3 0.01% Tween-20, and 1 mM DTT). The enzyme and the substrate are then added to the assay plates in two consecutive additions of 10 μL, and then shaken to mix. The reaction is allowed to proceed at room temperature for 30 minutes. A binding solution is then made from the kit components, comprised of 80% Solution A, 20% Solution B and binding reagent at a volume of 1/600 the total binding solution. […]

Chain of human PDE10A2 (Q9Y233 267-1055): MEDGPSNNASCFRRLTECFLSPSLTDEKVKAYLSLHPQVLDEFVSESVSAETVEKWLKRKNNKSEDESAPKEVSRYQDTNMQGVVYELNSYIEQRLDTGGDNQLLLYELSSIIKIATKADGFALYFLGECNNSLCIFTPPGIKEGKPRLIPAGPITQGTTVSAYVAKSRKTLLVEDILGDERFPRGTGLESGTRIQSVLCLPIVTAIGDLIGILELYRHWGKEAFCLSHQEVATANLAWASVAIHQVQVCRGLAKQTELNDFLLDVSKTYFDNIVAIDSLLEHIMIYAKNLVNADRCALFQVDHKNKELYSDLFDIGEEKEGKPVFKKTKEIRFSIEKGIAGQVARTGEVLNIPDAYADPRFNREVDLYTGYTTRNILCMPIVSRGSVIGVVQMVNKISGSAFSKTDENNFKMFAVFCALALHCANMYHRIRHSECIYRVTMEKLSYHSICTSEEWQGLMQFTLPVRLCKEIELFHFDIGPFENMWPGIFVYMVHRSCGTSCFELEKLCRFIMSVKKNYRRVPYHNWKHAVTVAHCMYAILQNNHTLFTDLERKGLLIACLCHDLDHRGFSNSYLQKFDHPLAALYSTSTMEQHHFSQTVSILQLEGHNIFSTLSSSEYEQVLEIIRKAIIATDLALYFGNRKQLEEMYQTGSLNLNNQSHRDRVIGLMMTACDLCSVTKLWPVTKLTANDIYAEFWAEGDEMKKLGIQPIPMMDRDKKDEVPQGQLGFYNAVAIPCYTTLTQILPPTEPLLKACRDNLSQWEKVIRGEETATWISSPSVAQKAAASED

Row | Structure (SMILES) | Ki [nM]
1 | Cc1c(Cl)nc(OC[C@@H]2C[C@H]2c2ccccn2)nc1NCc1cnn(C)c1 (stereo in doubt) [Compound 1-39, 6-chloro-5-methyl-N-[(1-methyl-1H-pyrazol-4-yl)methyl]-2-{[2-(pyridin-2-yl)cyclopropyl]methoxy}pyrimidin-4-amine] | 0.44
2 | Cn1cc(CNc2cc(C#N)nc(OC[C@H]3C[C@@H]3c3ccccn3)n2)cn1 (stereo in doubt) [Compound 1-41, 6-((1-methyl-1H-pyrazol-4-yl)methylamino)-2-((2-(pyridin-2-yl)cyclopropyl)methoxy)pyrimidin-4-carbonitrile] | 35
3 | Cc1c(NCc2cnn(C)c2)nc(OC[C@H]2C[C@@H]2c2ccccn2)nc1N(C)C (stereo in doubt) [Compound 1-44, N4,N4,5-trimethyl-N6-((1-methyl-1H-pyrazol-4-yl)methyl)-2-((2-(pyridin-2-yl)cyclopropyl)methoxy)pyrimidine-4,6-diamine] | 53
4 | Cc1nc(C)c(CNc2nc(OC[C@H]3C[C@@H]3c3ccccn3)nc(-c3ncco3)c2C)s1 (stereo in doubt) [Compound 1-46, N-((2,4-dimethylthiazol-5-yl)methyl)-5-methyl-6-(oxazol-2-yl)-2-((2-(pyridin-2-yl)cyclopropyl)methoxy)-pyrimidin-4-amine] | 6.4
5 | Cc1c(Cl)nc(OCCCc2ccc3ncccc3n2)nc1NCc1cnn(C)c1 [Compound 1-21, 6-chloro-5-methyl-N-[(1-methyl-1H-pyrazol-4-yl)methyl]-2-[3-(1,5-naphthyridin-2-yl)propoxy]pyrimidin-4-amine] | 2.1
6 | Cc1nc(C)c(CNc2nc(OCCc3ccccn3)nc(C#N)c2C)s1 [Compound 1-42, 6-((2,4-dimethylthiazol-5-yl)methylamino)-5-methyl-2-(2-(pyridin-2-yl)ethoxy)pyrimidine-4-carbonitrile] | 100
7 | Cc1c(Cl)nc(OC[C@H]2C[C@@H]2c2ccc3ncccc3n2)nc1NCc1nc(C)n(C)n1 [Compound 1-47, 2-(((1S,2S)-2-(1,5-naphthyridin-2-yl)cyclopropyl)methoxy)-6-chloro-N-((1,5-dimethyl-1H-1,2,4-triazol-3-yl)methyl)-5-methylpyrimidin-4-amine] | 8.1
8 | Cc1nc(C)c(CNc2nc(OC[C@H]3C[C@@H]3c3ccc4ncccc4n3)nc(Cl)c2C)o1 [Compound 1-48, 2-(((1S,2S)-2-(1,5-naphthyridin-2-yl)cyclopropyl)methoxy)-6-chloro-N-((2,4-dimethyloxazol-5-yl)methyl)-5-methylpyrimidin-4-amine] | 0.49
9 | Cc1nc(CNc2nc(OC[C@H]3C[C@@H]3c3ccc4ncccc4n3)nc(Cl)c2C)n(C)n1 [Compound 1-49, 2-(((1S,2S)-2-(1,5-naphthyridin-2-yl)cyclopropyl)methoxy)-6-chloro-N-((1,3-dimethyl-1H-1,2,4-triazol-5-yl)methyl)-5-methylpyrimidin-4-amine] | 2.2
10 | COc1ccc([C@H]2C[C@@H]2COc2nc(Cl)c(C)c(NCc3cnn(C)n3)n2)nc1 [Compound 1-50] | 0.77

These reach a lower Ki. Values come first.

Row | Ki [nM] | Structure (SMILES)
11 | 0.17 | CSc1nc(OC[C@H]2C[C@@H]2c2ccccn2)nc(NCc2cnn(C)c2)c1C (stereo in doubt) [Compound 1-43, 5-methyl-N-((1-methyl-1H-pyrazol-4-yl)methyl)-6-(methylthio)-2-((2-(pyridin-2-yl)cyclopropyl)methoxy)-pyrimidin-4-amine]
12 | 0.058 | Cc1nc(C)c(CNc2nc(OC[C@H]3C[C@@H]3c3ccc4ncccc4n3)ncc2C)s1 [Compound 1-45, 2-(((1S,2S)-2-(1,5-naphthyridin-2-yl)cyclopropyl)methoxy)-N-((2,4-dimethylthiazol-5-yl)methyl)-5-methylpyrimidin-4-amine]
13 | 0.04 | Cc1nc(C)c(CNc2nc(OCCOc3ccc4cccnc4n3)nc(Cl)c2C)s1 [Compound 1-32, 6-chloro-N-[(2,4-dimethyl-1,3-thiazol-5-yl)methyl]-5-methyl-2-[2-(1,8-naphthyridin-2-yloxy)ethoxy]pyrimidin-4-amine]
14 | 0.023 | Cc1nc(C)c(CNc2nc(OCCCc3nc4ccccc4[nH]3)nc(Cl)c2C)s1 [Compound 1-27, 2-[3-(1H-benzimidazol-2-yl)propoxy]-6-chloro-N-[(2,4-dimethyl-1,3-thiazol-5-yl)methyl]-5-methylpyrimidin-4-amine]
15 | 0.019 | Cc1nc(C)c(CNc2nc(OC[C@H]3C[C@@H]3c3ccccn3)nc(Cl)c2C)s1 (stereo in doubt) [Compound 1-20, 6-chloro-N-[(2,4-dimethyl-1,3-thiazol-5-yl)methyl]-5-methyl-2-{[2-pyridin-2-ylcyclopropyl]methoxy}pyrimidin-4-amine]
16 | 0.008 | Cc1nc(C)c(CNc2nc(OCCCc3ccc4ccccc4n3)nc(Cl)c2C)s1 [Compound 1-29, 6-chloro-N-[(2,4-dimethyl-1,3-thiazol-5-yl)methyl]-5-methyl-2-(3-quinolin-2-ylpropoxy)pyrimidin-4-amine]
17 | 0.0032 | Cc1cc(CNc2nc(OC[C@H]3C[C@@H]3c3ccc4ncccc4n3)nc(Cl)c2C)n(C)n1 [Compound 1-51, 2-(((1S,2S)-2-(1,5-naphthyridin-2-yl)cyclopropyl)methoxy)-6-chloro-N-((1,3-dimethyl-1H-pyrazol-5-yl)methyl)-5-methylpyrimidin-4-amine]
